From paper PMC5467912, “Asymmetric regulation of quorum-sensing receptors drives autoinducer-specific gene expression programs in Vibrio cholerae” (PLoS Genetics, 2017)
Several values for one entry are separate records, joined by “and”; a condition that tells them apart may be missing. Identical values can stand only once. Like-named read-outs stand apart in the source and are kept apart here.

What was measured:
[1] = tested on: QS-controlled luxCDABE operon; format: cell-based
[2] = tested on: QS-controlled luxCDABE operon; format: cell-based; conditions: for Light production: LuxS-CqsA- +CAI-1 5 μM; for RLU: Strain AH371
[3] = tested on: qrr4; format: cell-based
[4] = tested on: QS-controlled luxCDABE operon; format: cell-based; conditions: for RLU: PluxPQ-CqsS::3XFLAG LuxS-CqsA-
[5] = tested on: CqsS F162A; conditions: cited from earlier work
[6] = ΔcqsA strain carrying luciferase

Question: Which Light production ([1]; 5nM CAI-1, OD600 0.005) does the source give for `CCCCCCCCCC(=O)[C@@H](O)CC` [CAI-1, (S)-3-hydroxytridecan-4-one] here?
Answer: 81418.9 RLU and 88175.7 RLU

Question: And the Light production ([1]; 5nM CAI-1, OD600 0.0328)?
Answer: 3079268 RLU and 3871951 RLU

Question: What about the Light production ([1]; 5nM CAI-1, OD600 0.1753) of the same compound?
Answer: 587564 RLU

Question: What about the Light production ([1]; 5nM CAI-1, OD600 0.3442) of the same compound?
Answer: 310866 RLU and 554910 RLU

Question: What about the Light production ([1]; 5nM CAI-1, OD600 0.801) of the same compound?
Answer: 179775 RLU and 309613 RLU

Question: What about the Light production ([1]; 5nM CAI-1, OD600 1.26) of the same compound?
Answer: 81746 RLU and 99206.4 RLU

Question: What about the Light production ([1]; 5nM CAI-1, OD600 1.834) of the same compound?
Answer: 45747000 RLU and 48964010 RLU

Question: And the Light production ([1]; 5nM CAI-1, OD600 2.816)?
Answer: 21306820 RLU and 22194600 RLU

Question: What about the Light production ([1]; 5nM CAI-1, OD600 3.828) of the same compound?
Answer: 7523511 RLU and 7967607 RLU

Question: And the Light production ([1]; 10nM CAI-1, OD600 0.005)?
Answer: 81418.9 RLU and 88175.7 RLU

Question: And the Light production ([1]; 10nM CAI-1, OD600 0.0309)?
Answer: 3915858 RLU and 6084143 RLU

Question: And the Light production ([1]; 10nM CAI-1, OD600 0.3229)?
Answer: 637968 RLU and 656550 RLU

Question: And the Light production ([1]; 10nM CAI-1, OD600 1.126)?
Answer: 88099.5 RLU and 91474.2 RLU

Question: And the Light production ([1]; 10nM CAI-1, OD600 1.799)?
Answer: 63924400 RLU and 62812670 RLU

Question: What about the Light production ([1]; 10nM CAI-1, OD600 3.014) of the same compound?
Answer: 33012610 RLU and 33842070 RLU

Question: What about the Light production ([1]; 10nM CAI-1, OD600 3.657) of the same compound?
Answer: 10363690 RLU and 11730930 RLU

Question: And the Light production ([1]; 50nM CAI-1, OD600 0.005)?
Answer: 88175.7 RLU and 81418.9 RLU

Question: What about the Light production ([1]; 50nM CAI-1, OD600 0.17) of the same compound?
Answer: 729000 RLU and 688000 RLU

Question: And the Light production ([1]; 50nM CAI-1, OD600 1.08)?
Answer: 697000 RLU

Question: What about the Light production ([1]; 50nM CAI-1, OD600 1.1) of the same compound?
Answer: 90900 RLU and 113000 RLU

Question: And the Light production ([1]; 50nM CAI-1, OD600 1.96)?
Answer: 526000000 RLU and 531000000 RLU

Question: And the Light production ([1]; 50nM CAI-1, OD600 2.94)?
Answer: 619000000 RLU and 599000000 RLU

Question: What about the Light production ([1]; 50nM CAI-1, OD600 3.55) of the same compound?
Answer: 346000000 RLU and 321000000 RLU

Question: What about the Light production ([1]; 100nM CAI-1, OD600 0.005) of the same compound?
Answer: 81418.9 RLU and 88175.7 RLU

Question: And the Light production ([1]; 100nM CAI-1, OD600 0.0305)?
Answer: 3670000 RLU and 6790000 RLU

Question: And the Light production ([1]; 100nM CAI-1, OD600 0.1651)?
Answer: 654000 RLU and 1050000 RLU

Question: What about the Light production ([1]; 100nM CAI-1, OD600 0.3167) of the same compound?
Answer: 332000 RLU and 388000 RLU

Question: What about the Light production ([1]; 100nM CAI-1, OD600 0.721) of the same compound?
Answer: 196000 RLU and 241000 RLU

Question: What about the Light production ([1]; 100nM CAI-1, OD600 1.101) of the same compound?
Answer: 2280000 RLU

Question: And the Light production ([1]; 100nM CAI-1, OD600 2.679)?
Answer: 3170000000 RLU

Question: And the Light production ([1]; 100nM CAI-1, OD600 3.677)?
Answer: 1830000000 RLU and 1870000000 RLU

Question: And the Light production ([1]; 200nM CAI-1, OD600 0.005)?
Answer: 81418.9 RLU and 88175.7 RLU

Question: What about the Light production ([1]; 200nM CAI-1, OD600 0.0621) of the same compound?
Answer: 2130000 RLU and 2790000 RLU

Question: What about the Light production ([1]; 200nM CAI-1, OD600 0.3026) of the same compound?
Answer: 568000 RLU and 806000 RLU

Question: What about the Light production ([1]; 200nM CAI-1, OD600 0.5074) of the same compound?
Answer: 946000 RLU and 1180000 RLU

Question: What about the Light production ([1]; 200nM CAI-1, OD600 0.5715) of the same compound?
Answer: 2260000 RLU and 2870000 RLU

Question: What about the Light production ([1]; 200nM CAI-1, OD600 1.099) of the same compound?
Answer: 27300000 RLU and 26900000 RLU

Question: And the Light production ([1]; 200nM CAI-1, OD600 1.844)?
Answer: 5910000000 RLU

Question: What about the Light production ([1]; 200nM CAI-1, OD600 2.341) of the same compound?
Answer: 8370000000 RLU and 9230000000 RLU

Question: What about the Light production ([1]; 200nM CAI-1, OD600 3.352) of the same compound?
Answer: 11800000000 RLU and 12600000000 RLU

Question: What about the Light production ([1]; 200nM CAI-1, OD600 4.26) of the same compound?
Answer: 7350000000 RLU and 7860000000 RLU

Question: What about the Light production ([1]; 400nM CAI-1, OD600 0.005) of the same compound?
Answer: 81418.9 RLU and 88175.7 RLU

Question: What about the Light production ([1]; 400nM CAI-1, OD600 0.0614) of the same compound?
Answer: 1510000 RLU and 1840000 RLU

Question: And the Light production ([1]; 400nM CAI-1, OD600 0.3014)?
Answer: 358000 RLU and 392000 RLU

Question: What about the Light production ([1]; 400nM CAI-1, OD600 0.5621) of the same compound?
Answer: 3290000 RLU and 3630000 RLU

Question: What about the Light production ([1]; 400nM CAI-1, OD600 1.037) of the same compound?
Answer: 74300000 RLU and 84000000 RLU

Question: And the Light production ([1]; 400nM CAI-1, OD600 1.532)?
Answer: 10100000000 RLU

Question: What about the Light production ([1]; 400nM CAI-1, OD600 2) of the same compound?
Answer: 31900000000 RLU and 31800000000 RLU

Question: And the Light production ([1]; 400nM CAI-1, OD600 3.04)?
Answer: 22900000000 RLU and 24900000000 RLU

Question: And the Light production ([1]; 400nM CAI-1, OD600 3.35)?
Answer: 22600000000 RLU and 24400000000 RLU

Question: And the “CAI-1 concentration at which induction of bioluminescence occurred” value [1, 6]?
Answer: 50 nM

Question: What about the “CAI-1 concentrations that failed to activate a QS response” value [1, 6] of the same compound?
Answer: below 50 nM

Question: What about the “CAI-1 concentrations that fully induced QS” value [1, 6] of the same compound?
Answer: above 200 nM

Question: What about the Light production ([2]; OD600 0.0198) of the same compound?
Answer: 6464646 RLU

Question: What about the Light production ([2]; OD600 0.0375) of the same compound?
Answer: 5626666 RLU

Question: And the Light production ([2]; OD600 0.256)?
Answer: 957031 RLU

Question: And the Light production ([2]; OD600 0.663)?
Answer: 472096 RLU

Question: And the Light production ([2]; OD600 0.982)?
Answer: 378819 RLU

Question: What about the Light production ([2]; OD600 1.101) of the same compound?
Answer: 133515000 RLU

Question: What about the RLU ([2]; agonist 0.0476837 nM) of the same compound?
Answer: 5.19E+03 RLU and 2.61E+03 RLU

Question: What about the RLU ([2]; agonist 0.762939 nM) of the same compound?
Answer: 2.58E+03 RLU and 5.16E+03 RLU and 2.67E+03 RLU

Question: And the RLU ([2]; agonist 3.05176 nM)?
Answer: 5.00E+03 RLU and 2.56E+03 RLU and 2.61E+03 RLU

Question: What about the RLU ([2]; agonist 48.8281 nM) of the same compound?
Answer: 1.58E+04 RLU and 1.61E+04 RLU and 1.60E+04 RLU

Question: What about the RLU ([2]; agonist 195.312 nM) of the same compound?
Answer: 2.98E+05 RLU and 2.86E+05 RLU and 2.15E+05 RLU

Question: What about the RLU ([2]; agonist 781.25 nM) of the same compound?
Answer: 3.60E+06 RLU and 4.20E+06 RLU and 3.87E+06 RLU

Question: What about the RLU ([2]; agonist 3125 nM) of the same compound?
Answer: 1.30E+07 RLU and 1.41E+07 RLU and 1.40E+07 RLU

Question: And the RLU ([2]; agonist 12500 nM)?
Answer: 1.88E+07 RLU and 2.11E+07 RLU and 2.10E+07 RLU

Question: And the RLU ([2]; agonist 50000 nM)?
Answer: 1.88E+07 RLU and 1.96E+07 RLU and 1.89E+07 RLU

Question: And the “increase in light production” value ([2]; saturating autoinducer, HCD, vs untreated ΔcqsA ΔluxS)?
Answer: 100,000 fold

Question: And the “RLU, average per biological replicate (Totals)” value ([3]; LuxS-CqsA- strain + autoinducer, Rep 1-3)?
Answer: 2.55E+08 RLU and 2.82E+08 RLU and 3.63E+08 RLU

Question: And the “reduction of qrr4-luxCDABE expression” value ([3]; saturating autoinducer, ΔcqsA ΔluxS mutant)?
Answer: 20 fold

Question: What about the RLU ([4]; OD600 0.0561) of the same compound?
Answer: 7.33E+06 RLU

Question: What about the RLU ([4]; OD600 0.3257) of the same compound?
Answer: 8.15E+05 RLU

Question: And the RLU ([4]; OD600 1.037)?
Answer: 1.96E+05 RLU

Question: And the RLU ([4]; OD600 1.243)?
Answer: 3.52E+06 RLU

Question: What about the RLU ([4]; OD600 1.958) of the same compound?
Answer: 2.58E+09 RLU

Question: And the RLU ([4]; OD600 2.673)?
Answer: 3.36E+09 RLU

Question: And the “QS response when cqsS is under the luxPQ promoter” value ([4]; S9B Fig)?
Answer: incapable of inducing the premature response

Question: What about the “response of CqsS variant to CAI-1” value [5] of the same compound?
Answer: do not respond
